In experiment [1] the test system is Staphylococcus aureus. The experiment in a line: Colony counts with CHX and PCMX (in 5% isopropanol) in the presence of blood. Format: cell-based. The settings on record: Table 11: in 5% isopropanol, control 3 × 10^6. As for the experimental part:
[…] After one minute, a 50 microliter aliquot from each sample was diluted to a volume of 10 ml with LTSB drug inactivating medium (5% Tween 80, 2% lecithin, 0.6% sodium oleate, 0.5% sodium thiosulfate, 0.1% protease peptone and 0.1% tryptone), and then 0.5 ml of the diluted culture was plated on trypticase soy agar plates. The plates were incubated at 37° C. for 24 hours, and then colony counts per milliliter of the original 1 ml antimicrobial containing culture were determined.

Experiment [2] concerns Staphylococcus aureus. In words: Rate of kill: colony counts after one minute exposure of Staphylococcus aureus in TSB broth with 20% serum. The settings on record: for CFU/mL: Table 15: single agent, control 2.0 × 10^7. The experiment is classed as cell-based. As for the experimental part: To produce each sample, 0.1 ml of a ten-fold concentrated antimicrobial solution was added to 0.9 ml of TSB broth containing 20% serum and 107 colony forming units (CFU) of Staphylococcus aureus. After one minute, a 50 microliter aliquot from each sample was diluted to a volume of 10 ml with LTSB drug inactivating medium (5% Tween 80, 2% lecithin, 0.6% sodium oleate, 0.5% sodium thiosulfate, 0.1% protease peptone and 0.1% tryptone), and then 0.5 ml of the diluted culture was plated on trypticase soy agar plates. The plates were incubated at 37° C. for 24 hours, and then colony counts per milliliter of the original 1 ml antimicrobial containing culture were determined.
Using the same methods set forth in example section 5, above, the rate of kill of compositions comprising PHMB, PCMX, BZK and PXE were tested. […] Synergy was also observed among 0.1% PXE+0.05% PHMB+0.05% PCMX.

As for `[H]/N=C(\N/C(=N/[H])NCCCCCCNC(=N)NC(=N)Nc1ccc(Cl)cc1)Nc1ccc(Cl)cc1` [1% CHX, chlorhexidine], the CFU/ml in the experiment on Staphylococcus aureus [1] is reported as 1 × 10^4 CFU/ml.
Consider `[H]/N=C(\N/C(=N/[H])NCCCCCCNC(=N)NC(=N)Nc1ccc(Cl)cc1)Nc1ccc(Cl)cc1` [.5% CHX, chlorhexidine], for which the CFU/ml in the experiment on Staphylococcus aureus [1] is listed as 1 × 10^5 CFU/ml.
As to benzalkonium chloride [BZK], the CFU/mL in the experiment with Staphylococcus aureus [2] (concentration 0.02%) was 2.0 × 10^7 CFU/mL.
As for parachlorometaxylenol [.5% PCMX], in the experiment on Staphylococcus aureus [1], the CFU/ml came out at 0 CFU/ml.
Turning to parachlorometaxylenol [.25% PCMX], the CFU/ml in the experiment with Staphylococcus aureus [1] is listed as 1.4 × 10^4 CFU/ml.
Same read-out and setting: next, parachlorometaxylenol [.125% PCMX]: 1 × 10^6 CFU/ml.
With parachlorometaxylenol [PCMX], the “decrease in the number of CFU relative to control (factor / fold)” value with Staphylococcus aureus [2] (2.5% ISOPR samples, relative to the control named in the text (A1, A2, A4 or the no-antimicrobial control)) was “ten”. Moreover, the CFU/mL is recorded as 5.0 × 10^6 CFU/mL in the experiment on Staphylococcus aureus [2] (concentration 0.05%) and 1.6 × 10^3 CFU/mL in the experiment with Staphylococcus aureus [2] (concentration 0.1%).
With polyhexamethylene biguanide [PHMB], the CFU/mL in the experiment on Staphylococcus aureus [2] (concentration 0.025%) was 5.0 × 10^6 CFU/mL; with Staphylococcus aureus [2] (concentration 0.05%) it was 2.0 × 10^6 CFU/mL; in the experiment on Staphylococcus aureus [2] (concentration 0.1%) it was 4.0 × 10^6 CFU/mL.
